According to patent publication US12552813B2, “Heterocyclic substituted pyrimidopyran compound and use thereof” (Medshine Discovery Inc., priority 2023, dated 2026):

What was measured:
Type in all cases: cell-based
[1] = test system: KRAS^G12D mutant tumor cell line AsPC-1; assay: Antiproliferative effects of compounds in tumor cell line AsPC-1 (CellTiter-Glo 3D); conditions: Homo sapiens, ASPC1, Experimental Example 1, 7,000 cells per well, ULA plate, 120 h incubation
Description: The experiment studies the antiproliferative effects of compounds by detecting the effects of the compounds on in vitro cell activity of the KRAS^G12D mutant tumor cell line AsPC-1.
The cell line was AsPC-1. The tumor type was pancreatic cancer. The cell line was cultured by adherent growth using RPMI 1640+10% FBS. • Ultra Low Cluster-96-well plate (Corning-7007) • Greiner CELLSTAR 96-well plate (#655090) • Promega CellTiter-Glo 3D luminescence cell activity assay kit (Promega-G9683) • 2104-10 EnVision reader, PerkinElmer • RPMI 1640, DMEM, PBS (phosphate buffer), FBS (fetal bovine serum), Antibiotic-antimycotic, L-glutamine, and DMSO (dimethyl sulfoxide)
The tumor cell line was incubated in an incubator at 37° C., 5% CO2 under the culture conditions shown by the culture method. Regular passage was conducted, and the cells in the logarithmic growth phase were taken for seeding.
The cell line was AsPC-1, with a density of 7,000 cells (per well).
A cell suspension is added at a density of 135 μL per well to a ULA culture plate, and the same volume of cell-free medium is added to a blank control plate.
The ULA culture plate was centrifuged at room temperature for 10 min at 1,000 rpm immediately after seeding. Caution: Always handle follow-up actions with care after centrifuging to avoid unnecessary shaking. […]
The luminous signals were detected on a 2104 EnVision reader. […]

[2] = test system: KRAS^G12D mutant AsPC-1 cells; assay: AsPC-1 cell proliferation assay (3D-CTG method); conditions: Homo sapiens, ASPC1, 168 h, Experimental Example 2, 2,000 cells per well, 7 days incubation
Description: 1) ASPC-1 cells were seeded in a transparent 96-well cell culture plate, at a density of 195 μL of cell suspension per well containing 2,000 cells.
2) The compound to be tested was diluted with 100% DMSO to 10 mM as the 1st concentration and then diluted 5 times by a pipette to the 8th concentration, i.e. from 10 mM to 0.13 M. 2 μL of the gradient-diluted compound was added to 48 μL of cell medium for secondary dilution. After mixed, 5 μL of the secondary-diluted compound was added to the corresponding wells of the cell plate containing 195 μL of cells. The cell plate was put into a carbon dioxide incubator and incubated for 7 days.
3) After incubation, 100 μL of cell supernatant was discarded and 3D-CTG was added at a density of 60 μL per well. The cells were shaken and incubated at room temperature and 200 rpm for 20 min, and incubated in an incubator at room temperature for 1 h.
4) 100 μL of supernatant was pipetted from the well plate and transferred to a 96-well black plate with a clear bottom, and the luminescence was read in the BMG.
The original data was converted into the inhibition rate using equation Inhibition %=(Ave_H−Sample)/(Ave_H−Ave_L), and the IC50 value was obtained by curve fitting through four parameters (log(inhibitor) vs. response—Variable slope mode in GraphPad Prism). • H well: Reading of DM well • L well: Reading of Medium 5.

[3] = test system: SW620 (KRAS G12V mutant) cell line; assay: SW620 cell in vitro proliferation assay; conditions: Homo sapiens, SW-620, 240 h, 1,000 cells per well, 10 days incubation, 3D CellTiter-Glo
Description: RPMI1640 medium, penicillin/streptomycin antibiotics from Gibco, and fetal bovine serum from Hyclone. 3D CellTiter-Glo (cell viability chemiluminescent assay) reagent from Promega. SW620 (KRAS G12V mutant) cell line from ATCC, Envision Multilabel analyzer (PerkinElmer).
The cells were seeded in a 96-well, ultra-low adsorption U-plate, at a density of 80 μL of cell suspension per well containing 1,000 cells. The cell plate was incubated overnight in a carbon dioxide incubator.
The compound to be tested was diluted using a multi-channel pipette by 5 times for 8 concentrations, that was, from 2 mM to 25.6 nM, and double replicates were set up. 78 μL of medium was added to an intermediate plate. Then the gradient-diluted compound was transferred to the intermediate plate at a density of 2 μL per well according to the corresponding position, mixed and transferred at a density of 20 μL per well to a cell plate. […] Another cell plate was prepared, and the signal value read on the day of addition was taken as the maximum value (the Max value in the equation below) to be used in data analysis.
A cell viability chemiluminescent assay reagent was added to the cell plate at a density of 100 μL per well and incubated at room temperature for 30 min to stabilize luminous signals. The readings are taken using a multilabel analyzer. […]

[4] = test system: KRAS^G12V mutant H727 cells; assay: H727 cell proliferation assay (3D-CTG method); conditions: Homo sapiens, NCI-H727, 168 h, 2,000 cells per well, 7 days incubation
Description: H727 cells from ATCC; RPMI-1640 medium from ATCC; fetal bovine serum from Ausgenex; CellTiter-Glo® 3D assay kit (3D-CTG) from Promega; and CellCarrier-96 Spheroid ULA/CS from PE.
5) The aforementioned cells were seeded in a transparent 96-well cell culture plate, at a density of 195 μL of cell suspension per well containing 2,000 cells.
6) The compound to be tested was diluted with 100% DMSO to 10 mM as the 1st concentration and then diluted 5 times by a pipette to the 8th concentration, i.e. from 10 mM to 0.13 μM. 2 μL of the gradient-diluted compound was added to 48 μL of cell medium for secondary dilution. After mixed, 5 μL of the secondary-diluted compound was added to the corresponding wells of the cell plate containing 195 μL of cells. […]
7) After incubation, 100 μL of cell supernatant was discarded and 3D-CTG was added at a density of 60 μL per well. […] 8) 100 μL of supernatant was pipetted from the well plate and transferred to a 96-well black plate with a clear bottom, and the luminescence was read in the BMG.
The original data was converted into the inhibition rate using equation Inhibition %=(Ave_H−Sample)/(Ave_H−Ave_L), and the IC50 value was obtained by curve fitting through four parameters (log(inhibitor) vs. response—Variable slope mode in GraphPad Prism). • H well: Reading of DMSO well • L well: Reading of Medium 5. […]

## C=C1CN2CCC[C@]2(COc2nc3c(c(N4CCCn5nc(C(=O)N(C)C)cc5C4)n2)CO[C@@H](c2c(F)c(N)cc(C#CC)c2C(F)(F)F)C3)C1 (single isomer, unassigned) [Compound 5A]
[1]
  IC50: 6.1 nM
[2]
  IC50: 11.8 nM
[3]
  IC50: 27.5 nM
[4]
  IC50: 45.9 nM
